Earlier results, collected in paper PMC11331742 (Military Medical Research, 2024).

Legend:
[1] = tested on: mouse model of acute lung injury
Text: (§1) In addition, studies involving MC2r-independent agonists such as PT-141 could provide insight into cortisol-independent anti-inflammatory mechanisms.

MC2r = tested on: MC2r; design: method as in PMID 25140322
preclinical models = tested on: preclinical models
Text: as §1

Compound | effect on inflammation [1] | affinity for MC2r (MC2r) | anti-inflammatory effects (preclinical models)
α-melanocyte-stimulating hormone [α-MSH] | reduced inflammation | minimal affinity | 
CCCC(=O)C1(c2ccccc2)CCN(C(=O)[C@@H](Cc2ccc(OC)cc2)NC(=O)[C@@H](N)Cc2cncn2C)CC1 [BMS-470539] |  |  | promising anti-inflammatory effects
